Among the test systems are A498 renal; EKVX NSCLC; HCT-15 colon; HL-60(TB) leukemia; HOP-62 NSCLC; K-562 leukemia; LOX IMVI melanoma; SF-539 CNS; TK-10 renal; UACC-62 melanoma.
Holding throughout (experiment): NCI-60 cell line screen, 48 h

Values joined by “and” are separate entries in the source; they are usually repeats but may differ in a detail not shown here. Equal entries are not always repeated.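 A five-concentration, 48-hour dose response in 96-well plates underlies each endpoint, interpolated linearly between surrounding concentrations. GI50: concentration for 50% inhibition of growth. The concentration for full growth arrest is given as TGI.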 Some results are limits rather than exact numbers.

Take `O=C(O)c1ccc(Oc2nccc(-c3c(-c4ccc(F)cc4)ncn3C3CCNCC3)n2)cc1`: the GI50 in the assay on A498 renal, in the assay on EKVX NSCLC, in the assay with HCT-15 colon, in the assay on HL-60(TB) leukemia, in the assay on HOP-62 NSCLC and in the assay on K-562 leukemia was more than 25 µM in each case. Besides, the GI50 with LOX IMVI melanoma, with SF-539 CNS, in the assay with TK-10 renal and in the assay with UACC-62 melanoma was more than 25 µM throughout. In addition, the TGI in the assay on A498 renal, in the assay on EKVX NSCLC, in the assay with HCT-15 colon, with HL-60(TB) leukemia, with HOP-62 NSCLC and in the assay on K-562 leukemia was more than 25 µM each time. Also, the TGI in the assay on LOX IMVI melanoma, in the assay with SF-539 CNS, in the assay on TK-10 renal and in the assay on UACC-62 melanoma was more than 25 µM in each case.
As for `CCOC(=O)NC1C2CC(=O)OC(O2)C1OC(C)=O` (stereo not drawn), the TGI in the assay on A498 renal, in the assay on EKVX NSCLC, in the assay on HCT-15 colon, in the assay on HL-60(TB) leukemia, with HOP-62 NSCLC and in the assay on K-562 leukemia was more than 100 µM each time. Further, the TGI with LOX IMVI melanoma, in the assay with SF-539 CNS, with TK-10 renal and in the assay with UACC-62 melanoma was more than 100 µM in each case. For the same molecule, the GI50 with HL-60(TB) leukemia was more than 100 µM.
As to `N#CC1=C(N)Oc2c(ccc3ccccc23)C1c1ccccc1` (stereo not drawn), the GI50 in the assay with A498 renal was 0.0185 µM; with EKVX NSCLC, 0.315 µM; with HCT-15 colon, 0.0478 µM; in the assay with HL-60(TB) leukemia it was 0.0295 µM; in the assay with HOP-62 NSCLC, 0.0555 µM; in the assay on K-562 leukemia, 0.0322 µM. Moreover, the GI50 was 0.0575 µM with LOX IMVI melanoma, 0.0311 µM with SF-539 CNS, 7.57 µM with TK-10 renal and 0.0567 µM with UACC-62 melanoma. Also, the TGI in the assay on A498 renal turned out to be 0.0809 µM; in the assay on EKVX NSCLC it was 20.1 µM; in the assay on HCT-15 colon it was 10.7 µM; in the assay on HL-60(TB) leukemia, 0.274 µM; with HOP-62 NSCLC it was 18.6 µM; with K-562 leukemia, 22.6 µM. Further, the TGI in the assay on LOX IMVI melanoma amounted to 3.25 µM; with SF-539 CNS, 0.158 µM; in the assay on TK-10 renal it was 27 µM; with UACC-62 melanoma, 16 µM.
For the molecule `O=C1NC(=O)C(c2ccccc2Cl)=C1Nc1cc(Cl)c(O)c(Cl)c1`, the GI50 was more than 25 µM in the assay with A498 renal; more than 25 µM in the assay with EKVX NSCLC; 15 µM in the assay with HCT-15 colon; 9.75 µM in the assay on HL-60(TB) leukemia; 14.5 µM in the assay with HOP-62 NSCLC; 12.3 µM with K-562 leukemia. For the same molecule, the GI50 with LOX IMVI melanoma is 11.3 µM; in the assay with SF-539 CNS, 13.9 µM; with TK-10 renal, more than 25 µM; in the assay on UACC-62 melanoma, 11.4 µM. Moreover, the TGI in the assay on A498 renal, with EKVX NSCLC, with HCT-15 colon, in the assay on HL-60(TB) leukemia, in the assay on HOP-62 NSCLC and in the assay on K-562 leukemia was more than 25 µM each time. The TGI in the assay with LOX IMVI melanoma, in the assay on SF-539 CNS, in the assay on TK-10 renal and in the assay with UACC-62 melanoma was more than 25 µM throughout.
Take `C[C@]12CC[C@H](OC3OC(CO)C(O)C(O)C3O)C[C@H]1CC[C@@H]1[C@@H]2CC[C@]2(C)[C@@H](C3=CCOC3=O)CC[C@]12O` (stereo partly drawn): the GI50 in the assay on A498 renal, with EKVX NSCLC, in the assay on HCT-15 colon, in the assay on HL-60(TB) leukemia, in the assay on K-562 leukemia and with LOX IMVI melanoma was more than 100 µM throughout. Besides, the GI50 with SF-539 CNS is 0.198 µM. Also, the TGI with A498 renal was 21.1 µM and > 100 µM; in the assay on EKVX NSCLC, 29.3 µM and > 100 µM; with HCT-15 colon it was 50 µM and > 100 µM; with HL-60(TB) leukemia, 28 µM and > 100 µM; in the assay with HOP-62 NSCLC it was 13.8 µM and > 100 µM and 50.3 µM; with K-562 leukemia, 50 µM and > 100 µM. The TGI was 25.3 µM and > 100 µM with LOX IMVI melanoma; 7.96 µM and 1.6 µM in the assay on SF-539 CNS; more than 100 µM in the assay with TK-10 renal; 30.8 µM and > 100 µM in the assay on UACC-62 melanoma.
As for `CCN(Cc1ccccc1)c1ccc(CO)c(Cl)c1`, the GI50 in the assay with A498 renal is 0.042 µM; in the assay with EKVX NSCLC, 20.1 µM; with HCT-15 colon, 13.8 µM; with HL-60(TB) leukemia, 11.1 µM; with HOP-62 NSCLC, 0.963 µM; with K-562 leukemia, 2.69 µM. The GI50 was 23.8 µM with LOX IMVI melanoma, 30.2 µM in the assay on SF-539 CNS, 0.0649 µM in the assay with TK-10 renal and 0.104 µM with UACC-62 melanoma. Besides, the TGI in the assay with A498 renal is 0.169 µM; in the assay on EKVX NSCLC, 74.5 µM; with HCT-15 colon it was more than 100 µM; in the assay on HL-60(TB) leukemia, 46.7 µM; with HOP-62 NSCLC it was 79.5 µM; in the assay on K-562 leukemia, more than 100 µM. In addition, the TGI is more than 100 µM in the assay on LOX IMVI melanoma, more than 100 µM in the assay on SF-539 CNS, 0.281 µM in the assay on TK-10 renal and 0.695 µM in the assay with UACC-62 melanoma.
As for `COc1ccc(-c2cc(-c3ccc(Cl)cc3)nc(SCCCC(=O)NO)n2)cc1`, the GI50 in the assay with A498 renal is 1.38 µM; in the assay on EKVX NSCLC, 1.21 µM; in the assay with HCT-15 colon, 0.413 µM; in the assay on HL-60(TB) leukemia, 1.65 µM; in the assay on HOP-62 NSCLC it was 0.902 µM; in the assay with K-562 leukemia it was 1.2 µM. The GI50 in the assay with LOX IMVI melanoma is 0.153 µM; with SF-539 CNS it was 1.36 µM; with TK-10 renal, 0.499 µM; in the assay with UACC-62 melanoma, 0.853 µM. For the same molecule, the TGI is 3.28 µM in the assay on A498 renal; 8.76 µM with EKVX NSCLC; 1.7 µM in the assay on HCT-15 colon; more than 23 µM with HL-60(TB) leukemia; 6.66 µM in the assay with HOP-62 NSCLC; more than 100 µM with K-562 leukemia. Further, the TGI in the assay with LOX IMVI melanoma came out at 1.32 µM; with SF-539 CNS, 3.78 µM; in the assay on TK-10 renal, 5.78 µM; in the assay on UACC-62 melanoma, 2.22 µM.
In the case of `O=C1C=CC(=O)C12CCc1ccccc12`, the TGI in the assay on A498 renal was more than 100 µM; in the assay with EKVX NSCLC it was more than 100 µM; in the assay with HCT-15 colon it was more than 100 µM; in the assay with HL-60(TB) leukemia, more than 60.6 µM; in the assay on HOP-62 NSCLC, more than 100 µM; in the assay on K-562 leukemia it was more than 85.1 µM. In addition, the TGI with LOX IMVI melanoma, in the assay with SF-539 CNS, in the assay with TK-10 renal and in the assay on UACC-62 melanoma was more than 100 µM in each case.

The values are drawn from PubChem BioAssay (NCI).
